Measurements published in patent publication US20240082218A1, “PHARMACEUTICAL COMBINATIONS COMPRISING A KRAS G12C INHIBITOR AND USES OF A KRAS G12C INHIBITOR FOR THE TREATMENT OF CANCERS” (priority 2020, published 2024).
“Also recorded” adds a separate entry of the source. Read-outs that look alike come from different tables or passages of the source.

Key:
KRASG12C [1] = biological target: T1, KRASG12C (Homo sapiens, UniProt P01116, G12C); assay: In vivo KRASG12C target occupancy in NCI-H2122 xenografts; set-up: endogenous in cells; conditions: 100 mg/kg QD oral
Experimental: (§1) KRASG12C inhibition can be assessed by measuring free KRASG12C levels (target occupancy) and other biomarkers in the MAPK signaling pathway, such as decreased levels of phosphorylated ERK1/2 (pERK) and downregulation of DUSP6 mRNA transcript. […] In the less sensitive NCI-H2122 xenografts, orally administered JDQ443 (100 mg/kg QD) achieved approximately 80% KRASG12C inhibition and 90% decrease in DUSP6 mRNA transcript, causing stasis which is the maximum response in this model upon MAPK pathway inhibition.

KRASG12C [2] = biological target: T1, KRASG12C; assay: In vitro KRAS G12C target occupancy in H358 cancer cells; format: cell-based; set-up: endogenous in cells; host or cells: H358 (NCI-H358) cancer cells; conditions: read-out: in vitro IC50 for inhibition of KRAS G12C (target occupancy)
Experimental: as §1

pERK = assay: In vitro pERK inhibition in H358 cancer cells; format: cell-based; conditions: Homo sapiens, NCI-H358
Experimental: as §1

[3] = system: KRAS G12C-mutated cell lines; assay: pERK 6 h cellular assay; format: cell-based; conditions: Hec50, 6 h, read-out: pERK 6 h EC50 KRAS^G12C
[4] = system: MEK Q56P mutated cell lines; assay: pERK 6 h cellular assay; format: cell-based; conditions: Hec50, 6 h, read-out: pERK 6 h EC50 MEK^Q56P
KRAS WT = KRAS WT (Homo sapiens, UniProt P01116); assay: cRAF recruitment 6 h cellular assay; format: cell-based
NRAS WT = NRAS WT (Homo sapiens, UniProt P01111); assay: cRAF recruitment 6 h cellular assay; format: cell-based
NRAS WT, sequence (P01111 whole entry): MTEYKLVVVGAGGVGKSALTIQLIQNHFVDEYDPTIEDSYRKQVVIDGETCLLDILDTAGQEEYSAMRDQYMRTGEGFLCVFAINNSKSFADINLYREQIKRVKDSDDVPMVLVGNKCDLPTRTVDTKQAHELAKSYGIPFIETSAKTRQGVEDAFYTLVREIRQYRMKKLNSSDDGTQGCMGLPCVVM

[5] = system: KRAS G12C-mutated colorectal cancer PDX models; assay: KRAS G12C-mutated patient-derived xenograft (PDX) models of human colorectal cancer; format: in vivo, mice; conditions: oral; Compound A 100 mg/kg daily alone or with TNO155 10 mg/kg twice daily; one animal per PDX model
Experimental: Female nude mice were implanted subcutaneously with tumor fragments from each PDX model. Individual mice were assigned to treatment groups for dosing once their tumor volume reached 200-250 mm^3. One animal per PDX model was assigned to each treatment arm. […] The end of study per model was defined as minimum of 28 days treatment, or duration for untreated tumor to reach 1500 mm^3, or duration for two doublings of untreated tumor, whichever was slower. Tumor volumes were recorded and are represented as % tumor volume change f SEM for each group.

[6] = Oral exposure and tolerability in dog
[7] = system: MEK Q56P mutated cell lines; assay: Proliferation cellular assay; format: cell-based
HCC44 xenograft = assay: Anti-tumor activity in HCC44 xenografts; format: in vivo, mice; conditions: 10, 30 and 100 mg/kg oral daily
KRASG12C [8] = biological target: T1, KRASG12C; assay: Cellular target occupancy 6 h; format: cell-based
[9] = system: advanced solid tumors harboring the KRAS G12C mutation; conditions: patients; preliminary data, trial ongoing
Experimental: The study is conducted in adult patients with advanced solid tumors who harbor the KRAS G12C mutation. In expansion, advanced (metastatic or unresectable) non-small cell lung cancer patients who harbor the KRAS G12C mutation and who are in the second or third line treatment setting will be enrolled.
In particular, it may be administered at a total daily dose of 400 mg, administered once daily or twice daily. It may also be administered at a total daily dose of 200 mg, administered once daily or twice daily.
It may also be administered at a total daily dose of 600 mg, administered once or twice daily.
TNO155 is administered p.o. QD or BID in a 2 week on/1 week off schedule or continuously.
TNO155 may be administered at a total daily dose ranging from 10 to 80 mg, or from 10 to 60 mg. For example, the total daily dose of TNO155 may be selected from 10, 15, 20, 30, 40, 60 and 80 mg. For example, TNO may be dosed at a total daily dose of 10, 15, 20 or 30 mg.
The total daily dose of TNO155 may be administered continuously, QD (once a day) or BID (twice a day) on QD or BID on a 2 weeks on/l week off schedule. The total daily dose of TNO155 may be administered continuously, QD (once a day) or BID (twice a day) on QD or BID on continuously (i.e. without a drug holiday). […]

[10] = system: NCI-H2122 (KRASG12C lung) xenograft; format: in vivo, mice
KRASG12C [11] = biological target: T1, KRASG12C; assay: In vivo KRASG12C target occupancy in MIA PaCa-2 xenografts; set-up: endogenous in cells; host or cells: MIA PaCa-2 tumour xenografts in mice
Experimental: as §1

DUSP6 mRNA transcript [12] = assay: In vivo DUSP6 mRNA in MIA PaCa-2 xenografts; conditions: 30 mg/kg QD oral
4-week toxicity study = format: in vivo; conditions: dog
NCI-H2030 xenograft = assay: Anti-tumor activity in NCI-H2030 xenografts; format: in vivo, mice; conditions: 10, 30 and 100 mg/kg oral daily
DUSP6 mRNA transcript [13] = assay: In vivo DUSP6 mRNA in NCI-H2122 xenografts; conditions: 100 mg/kg QD oral
Experimental: as §1

[14] = system: Lu99 KRAS G12C lung carcinoma xenograft; assay: Anti-tumor efficacy in Lu99 KRAS G12C lung carcinoma xenografts; format: in vivo, mice
Experimental: It carries the allele NM_033360.4(KRAS):c.34G>T and consequently a heterozygous KRAS Gly12Cys mutation. Lu99 cells were grown in sterile conditions in a 37° C. incubator with 5% CO2 for two weeks. The cells were kept in RPMI media supplemented with 10% FCS, 2 mM L-Glutamin, 1 mM sodium pyruvate and 10 mM HEPES, and split 1:6 every 3 days. […] On the day of injection, cells were harvested after 8 passages in total, including passages from the vendor. Cells were resuspended in 50% HBSS and 50% Matrigel at a final concentration of 10·10^6 cells/ml.
Experiments were performed with female nude mice (Charles River Laboratories, Crl:NU(NCr)-Foxn1nu Homozygous). […] Animals were allowed to accommodate at least for 7 days.
Mice were injected subcutaneously with Lu99 human NSCLC cells to induce xenograft tumors and randomized into treatment groups when the mean tumor volume reached ˜250 mm^3.
The control group received a solution of 0.1% Tween 80 (Fisher Scientific AG #BP338-500) and 0.5% Methylcellulose in water.
The treatment period was between 9 to 28 days, depending on the groups.
Tumor growth was monitored regularly post cell inoculation and animals were randomized into treatment groups (n=6) when TV reached appropriate volume. During the treatment period, xenograft tumor sizes were measured about 2-3 times per week manually with calipers, and the TV was estimated in mm^3 using the formula: Length×Width^2/2.
Mice were injected subcutaneously with Lu99 human NSCLC cells to induce xenograft tumors and randomized into treatment groups when the mean tumor volume reached ˜200 mm^3. […] The treatment period was between 14 to 35 days, depending on the groups. Animals treated with vehicle were terminated at day 14. […] Tumor volumes were recorded and are represented as mean±SEM (standard error of the mean) for each group. Anti-tumor response of treatment groups vs. vehicle group was calculated at day 14 as % T/C or % regression.

HRAS WT = HRAS WT (Homo sapiens, UniProt P01112); assay: cRAF recruitment 6 h cellular assay; format: cell-based
HRAS WT, sequence (P01112 whole entry): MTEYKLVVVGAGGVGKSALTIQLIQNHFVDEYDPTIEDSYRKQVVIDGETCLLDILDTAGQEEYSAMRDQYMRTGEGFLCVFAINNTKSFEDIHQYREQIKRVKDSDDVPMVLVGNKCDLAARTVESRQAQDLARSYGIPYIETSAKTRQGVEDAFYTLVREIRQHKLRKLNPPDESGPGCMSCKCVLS

[15] = Oral exposure and tolerability in rat

Work on `C=CC(=O)N1CC2(CC(n3nc(-c4ccc5c(cnn5C)c4)c(-c4c(Cl)c(C)cc5[nH]ncc45)c3C)C2)C1` (single isomer, unassigned) [Compound A, 1-{6-[(4M)-4-(5-Chloro-6-methyl-1H-indazol-4-yl)-5-methyl-3-(1-methyl-1H-indazol-5-yl)-1H-pyrazol-1-yl]-2-azaspiro[3.3]heptan-2-yl}prop-2-en-1-one] yielded an inhibition at 100 mg/kg (KRASG12C [1]) of ~80%, an IC50 (KRASG12C [2]) of 20 nM and an IC50 (pERK) of 20 nM. The EC50 [3] was 20 nM, the EC50 [4] was > 10000 nM and the EC50 (KRAS WT) was > 10000 nM. The EC50 (NRAS WT) was > 6000 nM, the “tumor response in CRC PDX models” value [5] was “regression of one PDX model and to a slight to moderate tumor growth delay in some PDX models” and the oral bioavailability [6] was “orally bioavailable”. The tolerability [6] was “well-tolerated”, the GI50 [7] was 4000 nM and the “pattern of maximal response” value (HCC44 xenograft) was “stasis-like”. For the same compound, the EC50 (KRASG12C [8]) was 30 nM, the clinical efficacy [9] was “early signs of clinical efficacy” and the “clinical safety and tolerability” value [9] was “acceptable safety and tolerability profile”. The anti-tumor activity ([10]; 10 mg/kg daily oral) was “weak tumor-growth inhibition”, the anti-tumor activity ([10]; 30 mg/kg daily oral) was “moderate tumor-growth inhibition; also recorded: slightly less than tumor stasis” and the anti-tumor activity ([10]; 50 mg/kg twice daily oral) was “approximate tumor stasis”. The anti-tumor activity ([10]; 100 mg/kg daily oral) was “approximate tumor stasis”, the anti-tumor activity ([10]; 100 mg/kg daily oral, listed as JDQ443) was “stasis” and the “pattern of maximal response” value ([10]; 10, 30 and 100 mg/kg oral daily) was “stasis-like”. The inhibition at 30 mg/kg (KRASG12C [11]; MIA PaCa-2 xenografts, 30 mg/kg QD oral) was ~90%, the “KRASG12C TO t1/2” value (KRASG12C [11]; in vivo, MiaPaCa2 model) was ~66 h and the “decrease in DUSP6 mRNA transcript” value (DUSP6 mRNA transcript [12]) was ~75%. The “tolerability in 4-week toxicity study” value (4-week toxicity study) was “well tolerated”, the “pattern of maximal response” value (NCI-H2030 xenograft) was “moderate tumor growth inhibition” and the “decrease in DUSP6 mRNA transcript” value (DUSP6 mRNA transcript [13]) was “approximately 90%”. For the same compound, the “pattern of maximal response” value ([14]; LU99, 10, 30 and 100 mg/kg oral daily) was “regression”, the “anti-tumor response (Example 7)” value ([14]; Lu99, oral, Compound A 100 mg/kg once daily, TNO155 10 mg/kg twice daily continuous, alone or in combination) was “tumor regression for approximately two weeks” and the “anti-tumor response (Example 6)” value ([14]; Lu99, oral, Compound A 100 mg/kg once daily, TNO155 10 mg/kg twice daily, alone or in combination, up to 28 days) was “tumor regression for three weeks”. For the same compound, the EC50 (HRAS WT) was > 10000 nM, the oral bioavailability [15] was “orally bioavailable” and the tolerability [15] was “well-tolerated”.
